This passage reports AC50 results from patent US20230104936A1, “TRPML MODULATORS” (Casma Therapeutics, Inc., priority 2019, published 2023).

Structures are written as SMILES. Some results are limits rather than exact numbers.

In one assay the test system is TFEB. The assay can be described thus: TFEB nuclear translocation assay, HeLa wt cells. The following applies: 2 hrs compound treatment, Table 1 does not say HeLa wt or TRPML1 KO. The format is cell-based. On the procedure: For the TFEB nuclear translocation assay, HeLa wt or HeLa TRPML1 KO cells were plated at 2700 cells/well into black-walled, 384-well Cell carrier Ultra tissue culture treated plates in complete media and incubated overnight. The next day, cells are treated for 2 hrs with compounds and incubated at 37° C. Cells were then fixed for 30 minutes at room temperature in 4% final PFA and washed five times with 90 μL PBS. PBS is aspirated from the wells and the cells are blocked with 7.5 μL blocking buffer (1:1 PBS/Odyssey block buffer containing 0.1% triton x-100 and 1% goat serum). After 30-60 minutes of block, 7.5 μL of primary anti-TFEB (rabbit) antibody is added for a final dilution of 1:200 antibody in 15 μL blocking buffer. Plates are incubated overnight at 4° C. The following day, plates are washed again into PBS, 90 μL with 5 washes, all PBS is aspirated from the wells and the cells are incubated for 1 hr in 1:1000 goat-anti rabbit Alexa 488 secondary antibody, also containing 10 μg/mL Hoechst 33342. After the 1 hr room temperature incubation, plates are washed a final time into PBS, sealed with foil and imaged with an automated epifluorescence microscopy (PerkinElmer Operetta CLS). Four different fields were imaged per well using ×20 magnification for DAPI and FITC filter sets. Images were quantified using PerkinElmer Harmony software, briefly: apply flatfield correction (basic/advanced) for input images. Use the Find Nuclei building block with channel set at Hoechst to find the nuclei. Use the Find cytoplasm building block with channel set to Alexa 488 to find the cytoplasm. Use select cell region with Channel set at Alexa 488 and region of interest as Nuclei and define outer border at 0 μm and inner at 45 μm to cover complete nuclei. Use select cell region with Channel set at Alexa 488 and region of interest as ring region and define outer border at −5 μm and inner at 0 μm to define a ring around the nucleus. Use the find calculate intensity parameter to calculate intensity of the nuclear region and the ring region. Define results as Number of nuclei and ratio of A/B where A is Intensity of Nuclei and B is intensity of the ring region.
The compound numbers correspond to the compound numbers above in Tables A or B. Compounds having an activity designated as “++++” provided an AC50 of ≤2.00 μM; compounds having an activity designated as “+++” provided an AC50 of 2.01-8.00 μM; compounds having an activity designated as “++” provided an AC50 of 8.01-9.99 μM; and compounds having an activity designated as “+” provided an AC50 of ≥10.00 μM.
Compound `C[C@@H]1COC[C@@H](C)N1CC1CCN(c2c(F)cccc2NS(=O)(=O)c2ccc(S(=N)(=O)N(C)C)cc2)CC1` (stereo partly drawn) [Compound A-836, N-(2-(4-(((3S,5S)-3,5-dimethylmorpholino)methyl)piperidin-1-yl)-3-fluorophenyl)-4-(N,N-dimethylsulfamidimidoyl)benzenesulfonamide] returned an AC50 of 2.01 to 8 µM.
Same read-out and setting: the same measure for `Cc1cnc(N2CCC(CN3CCC(F)(F)CC3)CC2)c(C(C)S(=O)(=O)c2ccc(S(=O)(=O)N(C)C)cc2)c1` (single isomer, unassigned) [Compound A-990, 4-((1-(2-(4-((4,4-difluoropiperidin-1-yl)methyl)piperidin-1-yl)-5-methylpyridin-3-yl)ethyl)sulfonyl)-N,N-dimethylbenzenesulfonamide]: not above 2 µM; for `CC(c1cc(Cl)cnc1N1CCC(CN2CCC(F)(F)CC2)CC1)S(=O)(=O)c1ccc(S(=O)(=O)N(C)C)cc1` (single isomer, unassigned) [Compound A-979, 4-((1-(5-chloro-2-(4-((4,4-difluoropiperidin-1-yl)methyl)piperidin-1-yl)pyridin-3-yl)ethyl)sulfonyl)-N,N-dimethylbenzenesulfonamide]: 2.01 to 8 µM.

The same assay, now with this note: Homo sapiens, HeLa, 2 h, 2 hrs compound treatment, Table 1 does not say HeLa wt or TRPML1 KO.
`COCC1(C)CCN(c2ccccc2NS(=O)(=O)c2ccc3c(c2)COCC3)CC1` [Compound A-625, N-{2-[4-(methoxymethyl)-4-methylpiperidin-1-yl]phenyl}-3,4-dihydro-1H-2-benzopyran-7-sulfonamide] had an AC50 not above 2 µM.
`O=C(Nc1cccc(Cl)c1N1CCOCC1)c1ccc2c(c1)CCC2` [Compound A-366, N-[3-chloro-2-(morpholin-4-yl)phenyl]-2,3-dihydro-1H-indene-5-carboxamide] returned an AC50 not below 10 µM.
On the same count and under the same terms, to `CN(C)S(=O)(=O)c1ccc(S(=O)(=O)Nc2ccccc2N2CCC(O)(c3ccc(F)cn3)CC2)cc1` [Compound A-209, N4-{2-[4-(5-fluoropyridin-2-yl)-4-hydroxypiperidin-1-yl]phenyl}-N1,N1-dimethylbenzene-1,4-disulfonamide] belongs not above 2 µM.
Still for that read-out and setting: to `CCN(CC)CC1CCN(c2ccccc2NS(=O)(=O)c2ccc(S(=O)(=O)N(C)C)cc2)CC1` [Compound A-549, N4-(2-{4-[(diethylamino)methyl]piperidin-1-yl}phenyl)-N1,N1-dimethylbenzene-1,4-disulfonamide] belongs 2.01 to 8 µM; to `CN(C)S(=O)(=O)c1ccc(S(=O)(=O)Nc2cccc(F)c2N2CCC3(CCN3)CC2)cc1` [Compound A-816, N4-(2-{1,7-diazaspiro[3.5]nonan-7-yl}-3-fluorophenyl)-N1,N1-dimethylbenzene-1,4-disulfonamide], not below 10 µM; to `CCC(C)(C)N1CCN(c2ccccc2NS(=O)(=O)c2ccc(S(=O)(=O)N(C)C)cc2)CC1` [Compound A-455, N1,N1-dimethyl-N4-{2-[4-(2-methylbutan-2-yl)piperazin-1-yl]phenyl}benzene-1,4-disulfonamide], 2.01 to 8 µM.
Same read-out and setting: to `O=S(=O)(Nc1ccccc1N1CCC(c2ccc(Cl)cc2F)CC1)c1ccccc1CO` [Compound A-106, N-{2-[4-(4-chloro-2-fluorophenyl)piperidin-1-yl]phenyl}-2-(hydroxymethyl)benzene-1-sulfonamide] belongs not below 10 µM.
With `CN(C)S(=O)(=O)c1ccc(S(=O)(=O)Nc2ccccc2N2CCN(CC(F)(F)F)CC2)cc1` [Compound A-560, N1,N1-dimethyl-N4-{2-[4-(2,2,2-trifluoroethyl)piperazin-1-yl]phenyl}benzene-1,4-disulfonamide], the AC50 was not above 2 µM.
On the same count and under the same terms, the same measure for `CN(C)S(=O)(=O)c1ccc(S(=O)(=O)Nc2cncc(F)c2N2CCCCC2)cc1` [Compound A-856, N1-(5-fluoro-4-(piperidin-1-yl)pyridin-3-yl)-N^4,N^4-dimethylbenzene-1,4-disulfonamide]: not below 10 µM; for `O=S(=O)(Nc1cc(Cl)ccc1N1CCC(c2c(F)cccc2F)CC1)c1ccc2c(c1)CCC2` [Compound A-292, N-{5-chloro-2-[4-(2,6-difluorophenyl)piperidin-1-yl]phenyl}-2,3-dihydro-1H-indene-5-sulfonamide]: not above 2 µM.
The same measure, in the same setting: to `CN(C)S(=O)(=O)c1ccc(S(=O)(=O)Nc2ccccc2N2CCC(C#N)(c3ccc(F)cc3F)CC2)cc1` [Compound A-175, N4-{2-[4-cyano-4-(2,4-difluorophenyl)piperidin-1-yl]phenyl}-N1,N1-dimethylbenzene-1,4-disulfonamide] belongs not above 2 µM.
On the same count and under the same terms, to `Cc1nn(S(=O)(=O)c2ccc(S(=O)(=O)N(C)C)cc2)cc1N1CCN(c2ccc(Cl)cc2F)CC1=O` [Compound A-306, 4-({4-[4-(4-chloro-2-fluorophenyl)-2-oxopiperazin-1-yl]-3-methyl-1H-pyrazol-1-yl}sulfonyl)-N,N-dimethylbenzene-1-sulfonamide] belongs not below 10 µM.
Compound `COCC1(C)CCN(c2ccccc2NS(=O)(=O)c2cccc(C3CC3(F)F)c2)CC1` (stereo not drawn) [Compound A-651, 3-(2,2-difluorocyclopropyl)-N-{2-[4-(methoxymethyl)-4-methylpiperidin-1-yl]phenyl}benzene-1-sulfonamide] showed an AC50 not above 2 µM.
Still for that read-out and setting: to `CC(C)c1ccc(S(=O)(=O)Nc2ccccc2N2CCC3(CC2)COC(C)(C)C3)cc1` [Compound A-658, N-(2-{3,3-dimethyl-2-oxa-8-azaspiro[4.5]decan-8-yl}phenyl)-4-(propan-2-yl)benzene-1-sulfonamide] belongs not above 2 µM; to `CC1(C)CC2(CCN(c3ccccc3NS(=O)(=O)Cc3cccc(Cl)c3)CC2)CO1` [Compound A-678, 1-(3-chlorophenyl)-N-(2-{3,3-dimethyl-2-oxa-8-azaspiro[4.5]decan-8-yl}phenyl)methanesulfonamide], not above 2 µM; to `Cc1nn(C)c(C2CCN(c3ccc(Cl)cc3F)CC2)c1NS(=O)(=O)c1ccc(S(=O)(=O)N(C)C)cc1` [Compound A-33, N1-(5-(1-(4-chloro-2-fluorophenyl)piperidin-4-yl)-1,3-dimethyl-1H-pyrazol-4-yl)-N4,N4-dimethylbenzene-1,4-disulfonamide], not below 10 µM.
Same read-out and setting: the same measure for `CC(C)(C)C(=O)N1CCN(c2ccccc2NS(=O)(=O)C2CCc3ccccc3C2)CC1` (stereo not drawn) [Compound A-583, N-{2-[4-(2,2-dimethylpropanoyl)piperazin-1-yl]phenyl}-1,2,3,4-tetrahydronaphthalene-2-sulfonamide]: not below 10 µM; for `CS(=O)(=O)c1ccc(S(=O)(=O)Nc2ccccc2N2CCC3(CC2)CN(Cc2ccncc2)c2cc(F)ccc23)cc1` [Compound A-403, N-(2-{6-fluoro-1-[(pyridin-4-yl)methyl]-1,2-dihydrospiro[indole-3,4′-piperidin]-1′-yl}phenyl)-4-methanesulfonylbenzene-1-sulfonamide]: 2.01 to 8 µM; for `COc1ccc(S(=O)(=O)Nc2ccccc2N2CCC(Oc3ccc(F)cc3F)C2)cc1` (stereo not drawn) [Compound A-202, N-{2-[3-(2,4-difluorophenoxy)pyrrolidin-1-yl]phenyl}-4-methoxybenzene-1-sulfonamide]: not below 10 µM.
Still for that read-out and setting: the same measure for `CCN1CCN(c2c(Cl)cccc2NS(=O)(=O)c2ccc3c(c2)CCC3)C(=O)C1` [Compound A-315, N-[3-chloro-2-(4-ethyl-2-oxopiperazin-1-yl)phenyl]-2,3-dihydro-1H-indene-5-sulfonamide]: not below 10 µM; for `CN(C)S(=O)(=O)c1ccc(NS(=O)(=O)c2ccccc2N2CCC(c3ccc(Cl)cc3F)CC2)cc1` [Compound A-108, 4-((2-(4-(4-chloro-2-fluorophenyl)piperidin-1-yl)phenyl)sulfonamido)-N,N-dimethylbenzenesulfonamide]: not above 2 µM.
`CC1(C)CC2(CCN(c3ccccc3NS(=O)(=O)c3ccc4c(c3)CCOC4)CC2)CO1` [Compound A-726, N-(2-{3,3-dimethyl-2-oxa-8-azaspiro[4.5]decan-8-yl}phenyl)-3,4-dihydro-1H-2-benzopyran-6-sulfonamide] showed an AC50 of 2.01 to 8 µM.
Turning to `COc1ccc(S(=O)(=O)Nc2ncccc2N2CCN(c3ncc(Cl)cc3F)CC2)cc1` [Compound A-135, N-{3-[4-(5-chloro-3-fluoropyridin-2-yl)piperazin-1-yl]pyridin-2-yl}-4-methoxybenzene-1-sulfonamide], the AC50 is not below 10 µM.
Still for that read-out and setting: to `C[C@@H]1CN(CC2CCN(c3c(F)cccc3NS(=O)(=O)c3ccc(S(=O)(=O)C(F)F)cc3)CC2)C[C@H](C)O1` [Compound A-758, 4-difluoromethanesulfonyl-N-[2-(4-{[(2R,6S)-2,6-dimethylmorpholin-4-yl]methyl}piperidin-1-yl)-3-fluorophenyl]benzene-1-sulfonamide] belongs not above 2 µM.

As a reminder, the AC50 is the concentration giving half of the maximal activity seen.
